Reference: patent US20110250629A1, “ALCOHOL PRODUCTION PROCESS” (Lanza Tech New Zealand Limited, priority 2009, published 2011)

Key:
[1] = test system: Clostridium autoethanogenum; settings: fermentation broth
Clostridium thermocellum = settings: cited from earlier work
[2] = test system: Clostridium autoethanogenum DSM23693; settings: 37° C., PETC medium
Experimental: The ethanol tolerance of Clostridium autoethanogenum DSM23693 was tested in serum bottles (FIG. 5). Ethanol was added in various concentrations to an active growing culture at 37° C. in PETC medium (Tab. 1) with 30 psi steel mill gas as substrate (approx 48% CO, 32% N2, 2% H2, and 18% CO2). Ethanol concentrations were confirmed by HPLC analysis using an Agilent 1100 Series HPLC system equipped with a RID operated at 35° C. (Refractive Index Detector) and an Alltech IOA-2000 Organic acid column (150×6.5 mm, particle size 5 μm) kept at 60° C. Slightly acidified water was used (0.005 M H2SO4) as mobile phase with a flow rate of 0.7 ml/min. To remove proteins and other cell residues, 400 μl samples were mixed with 100 μl of a 2% (w/v) 5-Sulfosalicylic acid and centrifuged at 14,000×g for 3 min to separate precipitated residues. 10 μl of the supernatant were then injected into the HPLC for analyses.

In the case of `CCO` [ethanol, Ethanol], the “concentration over which growth rate is partially inhibited and productivity decreases” value [1] is listed as 20 to 40 g/L, the “concentration over which metabolism and growth rate are substantially slowed” value [1] is listed as 40 to 50 g/L and the “ethanol concentration in which the micro-organism can still thrive” value (Clostridium thermocellum; after strain selection) is listed as “up to 8%”. For the same compound, the “ethanol concentration inhibitory to growth” value (Clostridium thermocellum; unselected strain) was “above 1%”, the “microbial biomass reached over a 24 hour period” value ([2]; 20 g/L ethanol added, 30 psi steel mill gas, start approx 0.2 g/L biomass, no-added-ethanol culture reached approx 0.85 g/L) was 0.45 g/L and the “ethanol concentration at which growth was found to be inhibited” value ([2]; serum bottles) was 10-20 g/l.
